The values below come from patent publication US11891387B2, “Monoacylglycerol lipase modulators” (Janssen Pharmaceutica NV, priority 2020, dated 2024).

The target in this assay is human MGL from HeLa cells (Homo sapiens (Human), UniProt Q99685). Description: MGL in vitro activity assay: cleavage of [glycerol-1,3-3H]-oleyl glycerol, activated carbon filtration. Type of assay: biochemical. As to conditions: 300 nM [Glycerol-1,3-3H]-oleyl glycerol, endogenously expressed MGL from HeLa cells, one hour incubation. How it is done: The assay used to measure the in vitro activity of MGL is adapted from the assay used for another serine hydrolase (FAAH) described in Wilson et al., 2003 (A high-throughput-compatible assay for determining the activity of fatty acid amide hydrolase. Wilson S J, Lovenberg T W, Barbier A J. Anal Biochem. 2003 Jul. 15; 318(2):270-5.). The assay consists of combining endogenously expressed MGL from HeLa cells with test compounds, adding [glycerol-1,3-^3H]-oleyl glycerol, incubating for one hour, and then measuring the amount of cleaved [1,3-^3H]-glycerol that passes through an activated carbon filter. The amount of cleaved, tritiated glycerol passing through the carbon filter is proportional to the activity of the MGL enzyme in a particular well/test condition.
Standard conditions for this assay combine 300 nM [Glycerol-1,3-^3H]-oleyl glycerol with human MGL from HeLa cells and test compounds for one hour, after which the reaction is filtered through activated carbon and tritium is measured in the flow through. The test compound concentration in screening mode is 10 μM, while the highest compound concentration in IC50 assays is determined empirically. MGL is the predominant hydrolase in HeLa cells/cell homogenates.

Sequence of human MGL from HeLa cells (Q99685 whole entry): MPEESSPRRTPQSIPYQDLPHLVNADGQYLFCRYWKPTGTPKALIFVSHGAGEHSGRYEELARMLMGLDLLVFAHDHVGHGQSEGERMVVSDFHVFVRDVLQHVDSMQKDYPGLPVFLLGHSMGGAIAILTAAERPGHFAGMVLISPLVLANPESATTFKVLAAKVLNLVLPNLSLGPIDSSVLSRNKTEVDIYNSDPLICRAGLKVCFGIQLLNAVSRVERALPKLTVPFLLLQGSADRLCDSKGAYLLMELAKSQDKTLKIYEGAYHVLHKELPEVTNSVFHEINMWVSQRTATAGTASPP

As usually defined, the IC50 is the concentration needed to halve the response being measured. `Cn1nc(C(F)(F)F)cc1-c1c2c(nn1C)[C@@H]1CCC[C@H](C2)N1C(=O)c1nn(C)c2ccc(F)cc12` [Example 86, (5-Fluoro-1-methyl-1H-indazol-3-yl)((5R,9S)-2-methyl-3-(1-methyl-3-(trifluoromethyl)-1H-pyrazol-5-yl)-4,5,6,7,8,9-hexahydro-2H-5,9-epiminocycloocta[c]pyrazol-10-yl)methanone] had an IC50 of 0.018 µM. In other words, the double-digit nanomolar range. For the compound `C[C@H]1c2nn(C)c(-c3cnn(C(F)F)c3)c2CCN1C(=O)c1ccc2ncccc2c1` [Example 69, (S)-(3-(1-(Difluoromethyl)-1H-pyrazol-4-yl)-2,7-dimethyl-2,4,5,7-tetrahydro-6H-pyrazolo[3,4-c]pyridin-6-yl)(quinolin-6-yl)methanone], the IC50 was found to be 0.089 µM. Then `COc1ccc(C(=O)N2CCc3c(nn(C)c3-c3cc(C(F)(F)F)nn3C)[C@@H]2C)c2cccnc12` [Example 14, (S)-(2,7-Dimethyl-3-(1-methyl-3-(trifluoromethyl)-1H-pyrazol-5-yl)-2,4,5,7-tetrahydro-6H-pyrazolo[3,4-c]pyridin-6-yl)(8-methoxyquinolin-5-yl)methanone], with 0.015 µM; and `C[C@H]1c2nn(C)c(-c3cn(C)nc3C(F)(F)F)c2CCN1C(=O)c1ccc2c(c1)OCCC2` [Example 61, (S)-Chroman-7-yl(2,7-dimethyl-3-(1-methyl-3-(trifluoromethyl)-1H-pyrazol-4-yl)-2,4,5,7-tetrahydro-6H-pyrazolo[3,4-c]pyridin-6-yl)methanone], with 7.18 µM; and `C[C@H]1c2nn(C)c(-c3cc(C(F)(F)F)n(C)n3)c2CCN1C(=O)c1ccnc2c1ccn2C` [Example 49, (S)-(2,7-Dimethyl-3-(1-methyl-5-(trifluoromethyl)-1H-pyrazol-3-yl)-2,4,5,7-tetrahydro-6H-pyrazolo[3,4-c]pyridin-6-yl)(1-methyl-1H-pyrrolo[2,3-b]pyridin-4-yl)methanone], with 0.0032 µM. Then `Cc1nc2cc(F)ccc2cc1C(=O)N1CCc2c(nn(C)c2-c2cc(C(F)(F)F)nn2C)[C@@H]1C` [Example 24, (S)-(2,7-Dimethyl-3-(1-methyl-3-(trifluoromethyl)-1H-pyrazol-5-yl)-2,4,5,7-tetrahydro-6H-pyrazolo[3,4-c]pyridin-6-yl)(7-fluoro-2-methylquinolin-3-yl)methanone], with 1.76 µM; and `COc1nn(C)cc1-c1c2c(nn1C)[C@H](C)N(C(=O)c1ccc3ncccc3c1)CC2` [Example 16, (S)-(3-(3-Methoxy-1-methyl-1H-pyrazol-4-yl)-2,7-dimethyl-2,4,5,7-tetrahydro-6H-pyrazolo[3,4-c]pyridin-6-yl)(quinolin-6-yl)methanone], with 0.37 µM; and `COc1cccc(C(=O)N2[C@@H]3CCC[C@H]2c2nn(C)c(-c4cc(C(F)(F)F)nn4C)c2C3)c1C` (stereo in doubt) [Example 74, (3-Methoxy-2-methylphenyl)((5R,9S)-2-methyl-3-(1-methyl-3-(trifluoromethyl)-1H-pyrazol-5-yl)-4,5,6,7,8,9-hexahydro-2H-5,9-epiminocycloocta[c]pyrazol-10-yl)methanone], with 0.019 µM. For the compound `C[C@H]1c2nn(C)c(-c3cc(C(F)(F)F)nn3C)c2CCN1C(=O)c1c(F)cnc2c1ccn2C` [Example 47, (S)-(2,7-Dimethyl-3-(1-methyl-3-(trifluoromethyl)-1H-pyrazol-5-yl)-2,4,5,7-tetrahydro-6H-pyrazolo[3,4-c]pyridin-6-yl)(5-fluoro-1-methyl-1H-pyrrolo[2,3-b]pyridin-4-yl)methanone], the IC50 came out at 0.00067 µM. To `Cc1cc(C(=O)N2CCc3c(nn(C)c3-c3cc(C(F)(F)F)n(C)n3)[C@@H]2C)c2cc(F)ccc2n1` [Example 132, (S)-(2,7-Dimethyl-3-(1-methyl-5-(trifluoromethyl)-1H-pyrazol-3-yl)-2,4,5,7-tetrahydro-6H-pyrazolo[3,4-c]pyridin-6-yl)(6-fluoro-2-methylquinolin-4-yl)methanone] belongs 0.027 µM; to `Cc1cccc(C(=O)N2[C@@H]3CCC[C@H]2c2nn(C)c(-c4cc(C(F)(F)F)nn4C)c2C3)c1` (stereo in doubt) [Example 76, ((5R,9S)-2-Methyl-3-(1-methyl-3-(trifluoromethyl)-1H-pyrazol-5-yl)-4,5,6,7,8,9-hexahydro-2H-5,9-epiminocycloocta[c]pyrazol-10-yl)(m-tolyl)methanone], 0.068 µM. Then `Cc1cc2ncsc2cc1C(=O)N1CCc2c(nn(C)c2-c2cc(C(F)(F)F)nn2C)[C@@H]1C` [Example 134, (S)-(2,7-Dimethyl-3-(1-methyl-3-(trifluoromethyl)-1H-pyrazol-5-yl)-2,4,5,7-tetrahydro-6H-pyrazolo[3,4-c]pyridin-6-yl)(5-methylbenzo[d]thiazol-6-yl)methanone], with 0.087 µM.

In the case of `C[C@H]1c2nn(C)c(-c3ccnn3CC3CC3)c2CCN1C(=O)c1ccc2ncccc2c1` [Example 71, (S)-(3-(1-(Cyclopropylmethyl)-1H-pyrazol-5-yl)-2,7-dimethyl-2,4,5,7-tetrahydro-6H-pyrazolo[3,4-c]pyridin-6-yl)(quinolin-6-yl)methanone], half-maximal inhibition (IC50) was put at 7.3 µM. This IC50 is about 84-fold higher than that of the compound before.

As to `C[C@H]1c2nn(C)c(-c3ccnn3C3CC3)c2CCN1C(=O)c1ccc2ncccc2c1` [Example 68, (S)-(3-(1-Cyclopropyl-1H-pyrazol-5-yl)-2,7-dimethyl-2,4,5,7-tetrahydro-6H-pyrazolo[3,4-c]pyridin-6-yl)(quinolin-6-yl)methanone], the midpoint of inhibition, the IC50, lay at 4.2 µM.

In turn, `COc1cc(C)ccc1C(=O)N1CCc2c(nn(C)c2-c2cc(C(F)(F)F)nn2C)[C@@H]1C` [Example 41, (S)-(2,7-Dimethyl-3-(1-methyl-3-(trifluoromethyl)-1H-pyrazol-5-yl)-2,4,5,7-tetrahydro-6H-pyrazolo[3,4-c]pyridin-6-yl)(2-methoxy-4-methylphenyl)methanone] showed a 50% inhibitory concentration (IC50) of 0.062 µM.

The compound `C[C@H]1c2nn(C)c(-c3cc(C(F)(F)F)nn3C)c2CCN1C(=O)c1ccnc2c1ccn2C` [Example 46, (S)-(2,7-Dimethyl-3-(1-methyl-3-(trifluoromethyl)-1H-pyrazol-5-yl)-2,4,5,7-tetrahydro-6H-pyrazolo[3,4-c]pyridin-6-yl)(1-methyl-1H-pyrrolo[2,3-b]pyridin-4-yl)methanone] came in with an IC50 of 0.0057 µM. Against the preceding compound, the IC50 is about 11-fold lower.

For the compound `COc1cc(C)nc2ccc(C(=O)N3CCc4c(nn(C)c4-c4cc(C(F)(F)F)nn4C)[C@@H]3C)cc12` [Example 95, (S)-(2,7-Dimethyl-3-(1-methyl-3-(trifluoromethyl)-1H-pyrazol-5-yl)-2,4,5,7-tetrahydro-6H-pyrazolo[3,4-c]pyridin-6-yl)(4-methoxy-2-methylquinolin-6-yl)methanone], it took 10 µM to reach half-maximal inhibition (IC50).

On to `C[C@H]1c2nn(C)c(-c3cc(C(F)(F)F)nn3C)c2CCN1C(=O)c1cnc2ncsc2c1` [Example 123, (S)-(2,7-Dimethyl-3-(1-methyl-3-(trifluoromethyl)-1H-pyrazol-5-yl)-2,4,5,7-tetrahydro-6H-pyrazolo[3,4-c]pyridin-6-yl)(thiazolo[4,5-b]pyridin-6-yl)methanone], for which the IC50 was 0.95 µM. To `C[C@H]1c2nn(C)c(-c3cc(C(F)(F)F)nn3C)c2CCN1C(=O)c1cnn2cccc(F)c12` [Example 11, (S)-(2,7-Dimethyl-3-(1-methyl-3-(trifluoromethyl)-1H-pyrazol-5-yl)-2,4,5,7-tetrahydro-6H-pyrazolo[3,4-c]pyridin-6-yl)(4-fluoropyrazolo[1,5-a]pyridin-3-yl)methanone] belongs 0.0062 µM. In the case of `C[C@H]1c2nn(C)c(-c3cc(C(F)(F)F)nn3C)c2CCN1C(=O)c1ccnc2c1ccn2CC(F)(F)F` [Example 12, (S)-(2,7-Dimethyl-3-(1-methyl-3-(trifluoromethyl)-1H-pyrazol-5-yl)-2,4,5,7-tetrahydro-6H-pyrazolo[3,4-c]pyridin-6-yl)(1-(2,2,2-trifluoroethyl)-1H-pyrrolo[2,3-b]pyridin-4-yl)methanone], inhibition was half-maximal at 0.1 µM (IC50).

Compound `C[C@H]1c2nn(C)c(-c3cc(C(F)(F)F)nn3C)c2CCN1C(=O)c1nn(C)c2ccc(F)cc12` [Example 22, (S)-(2,7-Dimethyl-3-(1-methyl-3-(trifluoromethyl)-1H-pyrazol-5-yl)-2,4,5,7-tetrahydro-6H-pyrazolo[3,4-c]pyridin-6-yl)(5-fluoro-1-methyl-1H-indazol-3-yl)methanone] had a half-inhibitory concentration (IC50) of 0.03 µM. This IC50 lies about 3.3-fold lower than the previous one. To `Cc1cc(C(=O)N2CCc3c(nn(C)c3-c3cc(C(F)(F)F)nn3C)[C@@H]2C)c2cc(F)ccc2n1` [Example 10, (S)-(2,7-Dimethyl-3-(1-methyl-3-(trifluoromethyl)-1H-pyrazol-5-yl)-2,4,5,7-tetrahydro-6H-pyrazolo[3,4-c]pyridin-6-yl)(6-fluoro-2-methylquinolin-4-yl)methanone] belongs 0.018 µM; to `C[C@H]1c2nn(C)c(-c3cc(C(F)(F)F)nn3C)c2CCN1C(=O)c1cccc2ncsc12` [Example 57, (S)-Benzo[d]thiazol-7-yl(2,7-dimethyl-3-(1-methyl-3-(trifluoromethyl)-1H-pyrazol-5-yl)-2,4,5,7-tetrahydro-6H-pyrazolo[3,4-c]pyridin-6-yl)methanone], 0.022 µM. Then `CCn1nc(C(F)(F)F)cc1-c1c2c(nn1C)[C@@H]1CCC[C@H](C2)N1C(=O)c1cccc(C)c1` [Example 78, ((5R,9S)-3-(1-Ethyl-3-(trifluoromethyl)-1H-pyrazol-5-yl)-2-methyl-4,5,6,7,8,9-hexahydro-2H-5,9-epiminocycloocta[c]pyrazol-10-yl)(m-tolyl)methanone], with 0.16 µM.
